We go through one compound from patent publication US12611415B2, “Methods and compounds for treatment of metabolic disease” (Monash University, priority 2019, dated 2026).

This data set can be described thus: Systemic (plasma) exposure of celecoxib after oral gavage. The format is in vivo, mouse. The following applies: oral gavage 29 mg/kg in lipid based formulation (Compound I-1 equivalent to 8.3 mg/kg celecoxib), fasted mice. Here is the method: To evaluate the systemic exposure of celecoxib and celecoxib prodrug Compound I-1, 29 mg/kg celecoxib or celecoxib prodrug (equivalent to 8.3 mg/kg celecoxib) were administered in a self-emulsifying lipid-based formulation consisting of oleic acid (Sigma Aldrich, Australia)/Cremophor RH40 (Sigma Aldrich, Australia)/ethanol (40:52.6:7.4, w/w/w). Drug and prodrug concentrations in the formulations were confirmed using HPLC-MS/MS as described below.
In addition to evaluating lymph uptake of celecoxib and celecoxib prodrug, a pharmacokinetic dose-determining study was conducted to determine a dose of celecoxib and celecoxib prodrug that produce higher lymphatic uptake but lower systemic plasma celecoxib exposure (i.e. lower plasma concentrations over time) after administration of the prodrug. […]
For HPLC-MS/MS analysis of celecoxib in plasma after dosing celecoxib or celecoxib prodrug Compound I-1, 200 μL acetonitrile was added to 20 μL samples of plasma and 5 μL of a 1 μg/mL solution of internal standard (5,5-diethyl-1,3-diphenyl-2-iminobarbituric acid) in acetonitrile. Samples were vortexed for 30 seconds and centrifuged at 4,500 g for 5 min, and 80 μL supernatant was analyzed for celecoxib concentration by HPLC-MS. […]

For `CCCCCCCCCCCCCCCC(=O)OCC(COC(=O)CCCCCCCCCCCCCCC)OC(=O)CCCCCCCCC(=O)Oc1cc(C)cc(C)c1C(C)(C)CC(=O)NS(=O)(=O)c1ccc(-n2nc(C(F)(F)F)cc2-c2ccc(C)cc2)cc1` [Compound I-1], the “plasma concentrations of celecoxib, compared to an equal mass of the parent drug” value is “lower”.
